Data as given in paper PMC9865188 (Pharmaceutics, 2023).
Read-outs that look alike come from different tables or passages of the source.

Assays:
[1] = Nonspecific zosuquidar adsorption to glass HPLC vials; format: physicochemical; conditions: for nonspecific zosuquidar adsorption: 25% methanol in HEPES HBSS pH 7.4; for zosuquidar concentration found (theoretical 250 nM): HEPES HBSS pH 7.4 in glass vial
Description: Generally, when zosuquidar was diluted in aqueous solutions, less zosuquidar than expected was present according to HPLC-FL quantitation, when compared to the corresponding dilutions in water–organic solvent mixtures. […] These were further diluted in methanol or DMSO to 100 µM. For adsorption experiments, solutions of 0.5–49.5% v/v methanol or DMSO in HEPES HBSS pH 7.4 were prepared, along with HEPES HBSS pH 7.4 supplemented with 0.10, 1.0, 2.5, 5.0, 10, or 50 µM polysorbate 20 or 0.05% bovine serum albumin, as well as 10 mM MES HBSS pH 6.5, 10 mM ammonium acetate pH 4.5, 19 mM maleic acid buffer pH 6.5, and FaSSIF-V2. […] The vials were capped and vortexed for 1 min and equilibrated at ambient temperature for approximately 24 h before HPLC-FL analysis. The peak area of the samples was normalised to the peak area of control samples, which were considered to elicit 0% adsorption. […] Both vials were equilibrated at room temperature for at least 24 h. […] The solutions in both vials were then analysed directly by HPLC-FL.

[2] = Pharmacokinetic study in Sprague Dawley rats (oral gavage); format: in vivo; conditions: for AUC(0-t) / Cmax / bioavailability / half-life: male, Sprague-Dawley, rat, plasma, po; for AUC(0-t): Zosuquidar AUC0–6h; for Cmax: Zosuquidar Cmax; for bioavailability: Zosuquidar bioavailability; for half-life: Zosuquidar t½
Description: The study was conducted according to the European Convention for the Protection of Vertebrate Animals used for Experimental and other Scientific Purposes (ETS no. 123) and Belgian law controlling the experiments on animals (Royal Decree of 29 May 2013 for the protection of laboratory animals). Animals were allowed minimum five days to acclimatise upon arrival from the supplier, and they were housed in polysulphone cages (58 × 52 × 20 cm) in groups of six provided with wooden sticks for enrichment. Animals had free access to Safe 04 Maintenance Diet (Safe, Rosenberg, Germany) and water during acclimatisation and during the study.
Male Sprague Dawley rats (Charles River, Dortmund, Germany) weighing 293–358 g were randomly assigned into six groups of six animals. Formulations were prepared as clear solutions in 40% v/v ethanol–water and 10 mL/kg was administered to each animal by oral gavage. […] Plasma samples were taken by tail vein puncture with a needle followed by collection in 32–64 µL micro haematocrit tubes (Vitrex Medical, Herlev, Denmark) at times 15, 30, and 45 min and 1, 2, 3, 4, and 6 h. Samples were centrifuged, and plasma was transferred into 10 µL end-to-end pipettes (Vitrex Medical, Herlev, Denmark) and immediately frozen at −80 °C until bioanalysis. Immediately after the study, animals were euthanised according to the principles of euthanasia stated in the AVMA Guidelines for the Euthanasia of Animals (American Veterinary Medical Association, 2020). Plasma samples were analysed by a previously described qualified LC-MS/MS method.
Pharmacokinetic parameters were calculated individually for each animal subject and pooled for statistical analysis. The plasma concentration at 15 min (C15min) was reported as an average of the plasma concentration of the six animals in each group. […] Elimination rate constants (ke) were calculated by linear regression of the linear part of the ln(plasma concentration) versus time profiles, and plasma half-life (t½) was calculated from ke:(3) t½=ln (2)/ke

[3] = HEPES HBSS pH 7.4 + 5 or 10 µM polysorbate 20, 1% methanol, or 1% DMSO
Description: Samples were shaken on a vertical rotator (10 rpm, PTR-60, Grant Instruments, Cambridge, UK) for approximately 72 h at ambient temperature. The suspensions were then centrifuged at ambient temperature (15,000 RCF, 10 min, Multifuge X1R, Thermo Fisher Scientific, Boston, MA, USA), and a sample of the supernatant was transferred and diluted 1:1 with mobile phase in a 2 mL glass HPLC vial and analysed by fluorescence-coupled HPLC (HPLC-FL).

[4] = cited from earlier work
[5] = target: P-gp (Homo sapiens, UniProt P08183); experiment: Calcein-AM assay in MDCKII-MDR1 cells; format: cell-based; set-up: Piet Borst (Netherlands Cancer Institute); host or cells: MDCKII
P-gp, sequence (P08183 whole entry): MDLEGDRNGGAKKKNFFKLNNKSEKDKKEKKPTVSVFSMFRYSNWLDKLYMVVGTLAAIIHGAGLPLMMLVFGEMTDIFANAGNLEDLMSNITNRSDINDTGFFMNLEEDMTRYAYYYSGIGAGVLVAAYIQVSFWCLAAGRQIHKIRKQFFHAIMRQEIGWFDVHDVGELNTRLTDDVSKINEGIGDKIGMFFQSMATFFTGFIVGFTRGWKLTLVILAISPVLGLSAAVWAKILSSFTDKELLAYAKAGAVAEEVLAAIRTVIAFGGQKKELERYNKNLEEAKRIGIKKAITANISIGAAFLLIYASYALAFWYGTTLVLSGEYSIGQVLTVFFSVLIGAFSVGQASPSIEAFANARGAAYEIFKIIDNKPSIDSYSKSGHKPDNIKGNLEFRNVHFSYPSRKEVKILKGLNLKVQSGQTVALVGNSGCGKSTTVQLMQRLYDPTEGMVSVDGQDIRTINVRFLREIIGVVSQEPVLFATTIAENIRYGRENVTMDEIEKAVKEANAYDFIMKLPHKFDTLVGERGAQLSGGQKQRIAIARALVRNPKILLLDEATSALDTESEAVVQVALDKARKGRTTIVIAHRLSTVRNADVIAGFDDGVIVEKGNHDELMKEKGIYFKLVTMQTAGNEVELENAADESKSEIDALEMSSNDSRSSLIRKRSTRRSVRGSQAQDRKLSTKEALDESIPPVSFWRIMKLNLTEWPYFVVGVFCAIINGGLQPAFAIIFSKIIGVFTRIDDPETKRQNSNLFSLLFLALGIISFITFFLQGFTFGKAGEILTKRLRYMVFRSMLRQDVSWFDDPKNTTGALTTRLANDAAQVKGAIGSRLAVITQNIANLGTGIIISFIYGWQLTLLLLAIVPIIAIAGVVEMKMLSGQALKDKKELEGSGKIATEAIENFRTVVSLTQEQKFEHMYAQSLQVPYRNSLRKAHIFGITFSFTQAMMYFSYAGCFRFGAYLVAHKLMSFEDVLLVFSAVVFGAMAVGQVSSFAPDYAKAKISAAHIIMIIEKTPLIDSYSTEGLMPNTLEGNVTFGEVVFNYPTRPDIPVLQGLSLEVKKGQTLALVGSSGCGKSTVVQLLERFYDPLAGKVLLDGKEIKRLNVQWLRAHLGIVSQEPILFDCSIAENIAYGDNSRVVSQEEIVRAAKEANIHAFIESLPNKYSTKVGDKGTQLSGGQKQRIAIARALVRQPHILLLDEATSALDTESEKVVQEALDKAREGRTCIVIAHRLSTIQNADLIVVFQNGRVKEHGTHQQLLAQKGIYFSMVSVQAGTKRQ
Description: Before the experiment, growth medium was removed by vacuum suction (Vacusip, Integra Biosciences, NH, USA), 100 µL HEPES HBSS pH 7.4 was added to each well with a multichannel pipette, and the cells were incubated on a Talboys 1000 MP incubating microplate shaker (Troemner, NJ, USA, 220 rpm, 37 °C).
A total of 170 µL of the test solutions could then be transferred from the 96-well plate to the cell-containing plate at the start of preincubation. […] Wells containing HEPES HBSS pH 7.4 only served as a positive control. The cells were preincubated with test solutions (serial and spike) for 10 min on a microplate shaker (37 °C, 220 rpm). To start the experiment, 30 µL 33.3 µM calcein-AM in HEPES HBSS pH 7.4 was added to each well with a multichannel pipette, and the plate was stirred for 1 min on a microplate shaker (37 °C, 220 rpm) before being transferred to a Fluostar Omega plate reader.
One column of wells was kept without cells to measure background fluorescence signals from the applied buffers and compounds.

[6] = 2 mg/kg, group D: zosuquidar 2.0 mg/kg + etoposide 20 mg/kg + 5.0% v/v polysorbate 20 oral
[7] = 6.3 mg/kg, group E: zosuquidar 6.3 mg/kg + etoposide 20 mg/kg + 5.0% v/v polysorbate 20 oral
[8] = 6.3 mg/kg, group F: zosuquidar 6.3 mg/kg + etoposide 20 mg/kg + 10% v/v polysorbate 20 oral
[9] = group G*: zosuquidar 2.0 mg/kg + etoposide 20 mg/kg oral
[10] = group H*: zosuquidar 6.3 mg/kg + etoposide 20 mg/kg oral

O[C@@H](COc1cccc2ncccc12)CN1CCN([C@@H]2c3ccccc3[C@@H]3[C@H](c4ccccc42)C3(F)F)CC1 [zosuquidar]
nonspecific zosuquidar adsorption ([1]; 500 nM zosuquidar): 2.19 ± 6.71%
zosuquidar adsorption ([1]; 500 nM zosuquidar, 50% DMSO in HEPES HBSS pH 7.4): −5.9 ± 1.1%
zosuquidar adsorption ([1]; 500 nM zosuquidar, FaSSIF-V2 pH 6.5): 13.6 ± 1.0%
zosuquidar adsorption ([1]; 500 nM zosuquidar, HEPES HBSS pH 7.4 + 0.5% methanol): 97.0 ± 0.6%
nonspecific zosuquidar adsorption ([1]; 0.75 µM zosuquidar): 6.83 ± 2.33%
nonspecific zosuquidar adsorption ([1]; 2.5 µM zosuquidar): 2.76 ± 0.22%
nonspecific zosuquidar adsorption ([1]; 7.5 µM zosuquidar): −0.10 ± 2.02%
nonspecific zosuquidar adsorption ([1]; 25 µM zosuquidar): 32.5 ± 0.7%
zosuquidar concentration found (theoretical 250 nM) ([1]; after transfer to a new vial): 38.1 ± 13.7 nM
zosuquidar concentration found (theoretical 250 nM) ([1]; without transfer): 282 ± 8 nM
Zosuquidar AUC0–6h ([2]; group B: zosuquidar 0.63 mg/kg + etoposide 20 mg/kg + 1.0% v/v polysorbate 20 oral): BLQ
Zosuquidar tmax, median [Q1; Q3] ([2]; group E: zosuquidar 6.3 mg/kg + etoposide 20 mg/kg + 5.0% v/v polysorbate 20 oral): 60 [56;120] min
AUC(0-t) [2, 6]: 18.9 ± 2.8 ng·h/mL
Cmax [2, 6]: 4.8 ± 0.5 ng/mL
bioavailability [2, 6]: 5.64 ± 0.83%
half-life [2, 6]: 3 ± 0.383 h
AUC(0-t) [2, 7]: 47 ± 3.7 ng·h/mL
AUC(0-t) [2, 8]: 56.8 ± 4.2 ng·h/mL
Cmax [2, 7]: 13.2 ± 1 ng/mL
Cmax [2, 8]: 16.6 ± 1.1 ng/mL
bioavailability [2, 7]: 4.45 ± 0.35%
bioavailability [2, 8]: 5.38 ± 0.4%
half-life [2, 7]: 2.53 ± 0.333 h
half-life [2, 8]: 2.45 ± 0.167 h
effect on solubility [3]: did not significantly affect
Zosuquidar AUC0–6h ([4]; group F*: zosuquidar 0.63 mg/kg + etoposide 20 mg/kg oral): BLQ
Zosuquidar AUC0–6h [4, 9]: 8.67 ± 0.77 ng·h/mL
Zosuquidar Cmax [4, 9]: 2.10 ± 0.27 ng/mL
Zosuquidar bioavailability [4, 9]: 2.58 ± 0.23%
Zosuquidar tmax, median [Q1; Q3] [4, 9]: 120 [45;135] min
Zosuquidar t½ [4, 9]: 3.62 ± 0.45 h
Zosuquidar AUC0–6h [4, 10]: 43.6 ± 5.4 ng·h/mL
Zosuquidar Cmax [4, 10]: 10.9 ± 1.2 ng/mL
Zosuquidar bioavailability [4, 10]: 4.12 ± 0.51%
Zosuquidar tmax, median [Q1; Q3] [4, 10]: 90 [45;120] min
Zosuquidar t½ [4, 10]: 2.68 ± 0.217 h
mean P-gp activity ([5]; […] zosuquidar + 2.5 µM polysorbate 20, spike method): 61%
mean P-gp activity ([5]; […] zosuquidar + 5 µM polysorbate 20, spike method): 46%
discrepancy of IC50, serial dilution vs spike method ([5]; calcein-AM, zosuquidar alone): 60 fold
